The values below come from US7556825B2, “Method for promoting hair growth” (Anticancer, Inc., priority 1993, dated 2009).

In data set [1] the test system is Fischer or Sprague-Dawley rats. The following applies: cited from earlier work; for alopecia in young rats after treatment: starting from the head, around one to two weeks after treatment.
Another data set has as its system patients. The following applies: cited from earlier work.
The next data set deals with Sprague-Dawley rats. The note with it: ip chemotherapy. The method, then:
8-day old Sprague-Dawley rats are treated topically with liposome compositions as described in Example 1 containing a compound such as p21 to be screened for its effect on chemotherapy-induced alopecia. The liposome composition is provided at a concentration of 100 μg/ml in 1 mM β-mercaptoethanol, for 2 days. […] The rats are then treated with cyclophosphamide, CTX (35 mg/kg, ip once) with the combination of CTX (25 mg/kg)+doxorubicin, DOX (2.5 mg/kg), ip once per day for 3 days, respectively. One rat pup without chemotherapy was used as control.

For data set [2], the system named is hair follicles. The note with it: mouse, in vivo. The method, then: Liposomes were prepared essentially as described in Example 1. […] Thereafter, 0.5 ml of either calcein (10 mg/ml) or melanin (10 mg/ml) solution, respectively, were added to sonicated PC liposome composition, and further sonicated for 6 minutes, followed by freeze-thawing three times. […] A sample of about 250 microliters of the liposome composition entrapping calcein or melanin was applied directly to the dorsal skin on the mouse in an area of approximately 1.5 cm^2 using a sutured band-aid patch to immobilize the liposome composition onto the skin and to prevent evaporation. The liposome composition was re-applied every 1 hour for 6 hours, with the last application remaining for a total of 24 hours at which time the skin samples were taken by punch biopsy for analysis. For time course experiments, one mouse was used for each time period, with 6 punch biopsies taken from each mouse, at 0.5, 1, 2, 4, 6, 16 and 24 hours. […] Skin samples containing calcein were also analyzed by spectrofluorimetry to determine the effective concentration of a delivered beneficial compound into a selected tissue. […] The sonicated sample was then centrifuged for 10 minutes in a microcentrifuge at 14,000×g, and the resulting supernatant was measured by spectrofluorimetry at an excitation wavelength of 496 nm and an emission wavelength of 517 nm for detecting calcein. The concentration of calcein delivered into the skin tissue was determined from the spectrofluorometric readings by comparison to a standard curve. Skin samples containing melanin were also analyzed by is spectrophotometry to determine the effective concentration of a delivered beneficial compound into a selected tissue. […] The sonicated sample was then centrifuged for 10 minutes in a microcentrifuge at 14,000×g, and the resulting supernatant was measured by spectrophotometry at an absorption wavelength of 300 nm for detecting absorption by melanin. The concentration of melanin delivered into the skin tissue was determined from the spectrophotometric readings by comparison to a standard curve.

Data set [3] relates to hair follicles. Put plainly: Liposome-mediated delivery of melanin to hair follicles in white-haired mouse skin histoculture. In kind it is cell-based.
Method: To that end, liposomes were prepared by sonication. About 20 mg of egg phosphatidycholine was rotary evaporated with a vacuum drier from a chloroform solution to form a thin film on the walls of a 5 ml round-bottomed flask for about 1 hour. The dried thin film phospholipid was suspended in about 0.5 ml phosphate buffered saline (pH 7.4) on a vortex mixer and then sonicated with a Branson probe-type sonicator fitted with a microtip at power level 3 for about 8 minutes. Then 0.5 ml of a solution of melanin (10 mg/ml) was entrapped with the above suspension by sonication for about an additional 4 minutes. Liposomes were separated from the non-entrapped melanin by gel-filtration on a Sepharose 4B column equilibrated with phosphate buffered saline.
Pieces of outbred white-haired mouse skin derived from 1-2 weeks-old animals (about 2×5×2 mm each) were harvested under a dissection microscope. […] Liposome interaction with the skin was initiated after about 24 hours of histoculture. Mouse skin histocultures were incubated for about 12 hours with liposomes. […]
The skin histocultures were counter-stained with the dye 2′,7′-bis(2-carboxyethyl)-5 which is activated to fluorescence by nonspecific esterases present only in living cells. After the tissues were thoroughly washed, the specimens were analyzed with a Nikon fluorescence microscope equipped with a fluorescein cube. […]
Data set [4] deals with hair follicles. Put plainly: In vivo topical liposome-melanin coloring of regrowing hair in depilated white-haired mice. Set-up: species or system mouse. The source says: 3-4 week old white-haired mice were depilated by a mixture of bees wax and rosin gum. Topical application of liposome-melanin as described herein was started on day 6 after depilation. […] The skin surface was then washed with an excess of water and wipe-dried with a gauze pad. The out-growing hair was micro-photographed. The same concentration of naked melanin solution as entrapped into liposomes was used as the control. In another experiment, 3-4 week old white-haired mice were depilated by a mixture of bees wax and rosin gum. Topical application of liposome-melanin composition was started on day 10 after depilation. The melanin used in this experiment was from Biosource, SF, CA #MM-8A-1. The liposome-melanin composition was applied on the skin of mice twice per day for 3 days. The treated skin surface was then washed with an excess of water and wipe-dried with a gauze pad. The mice were then photographed. The same concentration of naked melanin solution as entrapped into liposomes was used as the control.

Data set [5] relates to hair follicles. In words: Liposome-mediated delivery of calcein dye to hair follicles in mouse skin histoculture. In kind it is cell-based. The method, then:
For the histoculture of skin, pieces of shaved outbred white-haired-mouse or nude-mouse skin, approximately 2×5×2 mm, were harvested under a dissection microscope and then histocultured on collagen-gel supported sponge as described by Li et al., Proc. Natl. Acad. Sci. USA 88:1908-1912, 1991. Histoculture was continued for about 24 hours prior to contacting the skin histoculture with the liposome preparation.
Liposomes were prepared by sonication of about 15 mg or 25 mg, preferably 25 mg, phosphatidylcholine (PC) emulsion in phosphate buffered saline (PBS) containing about 20 mg/ml of the fluorescent dye calcein. Liposomes were also prepared by entrapping NBD-phosphatidylcholine fluorescent dye using an emulsion with about 20 mg/ml of the NBD formulation. Liposomes were separated from the non-entrapped dye by gel-filtration on a Sepharose 4B column diluted with phosphate buffered saline. The amount of entrapped dye was measured spectrofluorometrically. Two types of PC were used: egg PC (EPC) and dipalmitoyl PC (DPPC). Due to their phase transition temperatures, liposomes made of DPPC are in a gel phase at about 37° C. while liposomes prepared from EPC are in a liquid-crystalline state.
Samples of the mouse skin histocultures were incubated for about 20 minutes with each of the liposomes and with a solution of “free” calcein dye at the same concentrations used in the liposome preparation. After the tissue samples were thoroughly washed with culture medium free of liposomes to remove excess liposome composition, the specimens were analyzed with a BioRad MRC 600 laser confocal microscope with a BHS filter block, which excites the tissue at 488 nm and passes the light emitted at 520 nm. These parameters are close to the excitation and emission maxima reported for calcein, Haugland, (Ed.) Molecular probes. Handbook of Fluorescent Probes and Research Chemicals, Molecular Probes, Inc., Eugene, (1989-1991 and 1992-1993). There is no autofluorescence of tissue when these emission and excitation wavelengths are used. […]

With `Nc1ccn([C@@H]2O[C@H](CO)[C@@H](O)[C@@H]2O)c(=O)n1` [ara-C], the “alopecia in young rats after treatment” value in data set [1] was “develop alopecia”.
Consider `O=P1(N(CCCl)CCCl)NCCCO1` (centres unmarked) [CTX, cyclophosphamide], for which, in the data set on patients (intravenous), the “patients with severe alopecia” value is 75-90%. Also, the “other toxic effects in rat pups” value with Sprague-Dawley rats is “No other toxic effects were noted”. For the same molecule, the “alopecia in rat pups” value in the data set with Sprague-Dawley rats (noted at day-7) is reported as “alopecia can be seen”. In addition, in data set [1], the “alopecia in young rats after treatment” value is recorded as “develop alopecia”.
`C=C1/C(=C\C=C2/CCC[C@]3(C)[C@@H]([C@H](C)CCCC(C)(C)O)CC[C@@H]23)C[C@@H](O)C[C@@H]1O` [1,25-dihydroxyvitamin D3]: in data set [1] (topical), the “prevention of alopecia induced by cytoxan or etoposide” value is listed as “prevents alopecia induced by cytoxan or etoposide”.
With melanin [naked melanin], the “melanin delivered to the hair follicles” value in the data set with hair follicles [2] is “less than 2.0 ug/mm^2”. The “localization of melanin in hair follicles and hair shafts (H&E paraffin section)” value with hair follicles [3] is reported as “no “free” melanin can be observed either in hair shafts or the hair follicular cells”. Further, in the data set with hair follicles [4] (topical once per day for 4 days from day 6 after depilation), the “coloring of out-growing hair” value is on record as “No hair coloring is observed”. In the data set on hair follicles [4] (topical twice per day for 3 days from day 10 after depilation), the “coloring of regrown hair” value is “regrown hair remained white”.
On to `O=C(O)CN(CC(=O)O)Cc1cc2c(cc1O)Oc1cc(O)c(CN(CC(=O)O)CC(=O)O)cc1C21OC(=O)c2ccccc21` [free calcein, calcein], for which the “delivery of calcein into hair follicles and shafts (fluorescent microscopy)” value in the data set with hair follicles [2] is “trapped in the stratum corneum and did not enter the hair shafts or follicles”. Further, the “calcein delivered in the hair follicles” value in the data set on hair follicles [2] (outbred white-haired, 24 h) is recorded as “about 1.4 ng/mm^2”. The “delivery of calcein into hair follicles by topical use” value with hair follicles [5] (histoculture topically treated 48 hours) is recorded as “rarely penetrated through the skin to stain the hair follicles”. In addition, in the data set with hair follicles [5] (histoculture treated 48 hours, propidium iodide counterstain), the “delivery of green fluorescent dye to hair follicles and shafts” value is given as “very weak staining of a few hair follicles”. The “delivery of fluorescent dye to hair follicles (confocal fluorescence microscopy)” value with hair follicles [5] (skin histoculture incubated about 20 minutes) is “relatively low fluorescence with no preferential staining of any particular skin structure”.
Regarding `COc1cccc2c1C(=O)c1c(O)c3c(c(O)c1C2=O)C[C@@](O)(C(=O)CO)C[C@@H]3O[C@H]1C[C@H](N)[C@H](O)[C@H](C)O1` [doxorubicin], the “hair loss in patients” value with patients (human, in vivo) is given as 85-100%. In data set [1], the “alopecia in young rats after treatment” value was “develop alopecia”.
